This note sets out measurements from publication PMC6320941, “Synthesis and Evaluation of 3-Substituted-4-(quinoxalin-6-yl) Pyrazoles as TGF-β Type I Receptor Kinase Inhibitors” (Molecules, 2018).

Where only a bound is given, the exact number is not on record here.

One data set deals with T1, ALK5 (Homo sapiens, UniProt P36897).
T1 sequence (P36897 205-495 limits assumed): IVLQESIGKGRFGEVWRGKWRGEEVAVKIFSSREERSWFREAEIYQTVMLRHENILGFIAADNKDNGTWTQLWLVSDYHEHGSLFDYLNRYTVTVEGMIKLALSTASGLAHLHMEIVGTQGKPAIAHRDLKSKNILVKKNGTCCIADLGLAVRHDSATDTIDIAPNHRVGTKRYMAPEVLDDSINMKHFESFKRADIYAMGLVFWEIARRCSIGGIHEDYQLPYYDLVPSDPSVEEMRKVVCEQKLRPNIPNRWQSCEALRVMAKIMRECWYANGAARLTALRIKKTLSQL
As to the kind of experiment: Radiometric 33PanQinase ALK5 kinase assay (ProQinase), casein substrate. It counts as biochemical. The note with it: for Selectivity Index: IC50 of p38α/IC50 of ALK5; for ALK5 inhibitory activity in words: at up to 5.0 μM for 18a–d, 'at up to 2.26 μM' for pyrimidin-4-yl compounds; for remaining activity at 10 µM: compound at 10 μM, in duplicate, read-out: Residual Activity (%) ALK5. The protocol:
To investigate whether compounds 14a–d, 15a–d, 16a–d, 17a–d, 18a–d, and 19a–d would inhibit ALK5, a kinase assay for preliminary screening was performed using the purified human ALK5 kinase domain produced in Sf9 insect cells and compounds at 10 μM.
(§1) All kinase experiments were completed by the ProQinase (Freiburg, Germany). All protein kinases were expressed in Sf9 insect cells or in E. coli as recombinant GST-fusion proteins or His-tagged proteins, either as full-length or enzymatically active fragments. All kinases were obtained from human cDNAs and purified by either GSH-affinity chromatography or immobilized metal. The purity of the protein kinases was examined by SDS-PAGE/Coomassie staining. The identity was checked by mass spectroscopy.
(§2) A radiometric protein kinase assay (^33PanQinase® activity assay) was used for measuring the kinase activity of the two protein kinases. All kinase assays were performed in 96-well FlashPlates^TM from PerkinElmer (Boston, MA, USA) in 50 μL reaction volumes. The reaction cocktail was pipetted in four steps in the following order: 20 μL of assay buffer (standard buffer), 5 μL of ATP solution (in H2O), 5 μL of test compound (in 10% DMSO), 20 μL enzyme/substrate mix.
(§3) The assay for all protein kinases contained 70 mM HEPES-NaOH pH 7.5, 3 mM MgCl2, 3 mM MnCl2, 3 μM Na-orthovanadate, 1.2 mM DTT, 50 μg/mL PEG20000, ATP, [γ-^33P]-ATP, protein kinase, and substrate.
(§4) The reaction cocktail was incubated at 30 °C for 60 min. The reaction was halted with 50 μL of 2% (v/v) H3PO4, plates were aspirated and washed two times with 200 μL 0.9% (w/v) NaCl. Incorporation of ^33Pi was established with a microplate scintillation counter (PerkinElmer, Boston, MA, USA). All assays were performed with a BeckmanCoulter/SAGIAN™ Core System.

Another data set has as its target p38α MAP kinase (Homo sapiens, UniProt Q16539). As to the kind of experiment: Radiometric 33PanQinase p38α MAP kinase assay (ProQinase), ATF2 substrate. Format: biochemical. The note with it: for remaining activity at 10 µM: compound at 10 μM, in duplicate, read-out: Residual Activity (%) p38α.
Text: We selected p38α MAP kinase to survey the selectivity profile of this series of compounds because its kinase domain is among the most homologous to that of ALK5 [27].
as §1, §2, §3, §4

p38α MAP kinase, sequence (Q16539 whole entry, the tested form may be a part): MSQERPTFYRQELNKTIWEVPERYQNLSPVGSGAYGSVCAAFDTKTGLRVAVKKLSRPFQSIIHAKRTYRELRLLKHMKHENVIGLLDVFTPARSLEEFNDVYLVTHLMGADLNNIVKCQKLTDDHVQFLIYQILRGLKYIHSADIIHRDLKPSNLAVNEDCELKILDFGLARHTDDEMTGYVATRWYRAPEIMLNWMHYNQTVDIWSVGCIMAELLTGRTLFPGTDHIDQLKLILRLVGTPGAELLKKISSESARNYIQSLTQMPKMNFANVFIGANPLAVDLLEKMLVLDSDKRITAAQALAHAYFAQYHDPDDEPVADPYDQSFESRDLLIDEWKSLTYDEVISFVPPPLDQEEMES

As to `N#Cc1cccc(NC(=O)Cn2cc(-c3ccc4nccnc4c3)c(-c3ccncn3)n2)c1` [Compound 25d, N-(3-Cyanophenyl)-2-(3-(pyrimidin-4-yl)-4-(quinoxalin-6-yl)-1H-pyrazol-1-yl)acetamide], the melting point (in general, the temperature of the solid-liquid transition) was 178.3 to 180.5 °C. In addition, at ALK5, the IC50 – broadly, the concentration at which inhibition is half-maximal – was 4.12 µM; the “Selectivity Index” value is listed as >2; the “ALK5 inhibitory activity in words” value was “no significant ALK5 inhibition activity”. The IC50 on p38α MAP kinase is > 10 µM.

Consider `N#Cc1cccc(NC(=S)Cn2cc(-c3ccc4nccnc4c3)c(-c3ccncn3)n2)c1` [Compound 27d, N-(3-Cyanophenyl)-2-(3-(pyrimidin-4-yl)-4-(quinoxalin-6-yl)-1H-pyrazol-1-yl)ethanethioamide], for which, on ALK5, the IC50 was found to be 2.26 µM, the “Selectivity Index” value is >4 and the “ALK5 inhibitory activity in words” value is recorded as “no significant ALK5 inhibition activity”. On p38α MAP kinase, the half-maximal inhibitory concentration (IC50) was > 10 µM.

Regarding `CN(C)c1cccc(-c2c(-c3ccc4nccnc4c3)cnn2CC(=O)Nc2cccc(C#N)c2)n1` [Compound 15d, N-(3-Cyanophenyl)-2-(5-(6-(dimethylamino)pyridin-2-yl)-4-(quinoxalin-6-yl)-1H-pyrazol-1-yl)acetamide], the melting point lay within 145.5 to 148 °C. Besides, the remaining activity at 10 µM at ALK5 was 94%. Further, the remaining activity at 10 µM on p38α MAP kinase was 109%.

Regarding `Cc1csc(-c2c(-c3ccc4nccnc4c3)cnn2CC(=O)Nc2cccc(F)c2)n1` [Compound 17c, N-(3-Fluorophenyl)-2-(5-(4-methylthiazol-2-yl)-4-(quinoxalin-6-yl)-1H-pyrazol-1-yl)acetamide], the remaining activity at 10 µM was 69% on ALK5 and 66% at p38α MAP kinase.

As to `Cc1csc(-c2nn(CC(=S)Nc3cccc(F)c3)cc2-c2ccc3nccnc3c2)n1` [Compound 19c, N-(3-Fluorophenyl)-2-(3-(4-methylthiazol-2-yl)-4-(quinoxalin-6-yl)-1H-pyrazol-1-yl)ethanethioamide], on ALK5, it took 0.33 µM to reach half-maximal inhibition (IC50), the “Selectivity Index” value is on record as >30 and the remaining activity at 10 µM turned out to be 2%. Besides, on p38α MAP kinase, the IC50 was > 10 µM and the remaining activity at 10 µM is 109%.

For `CN(C)c1cccc(-c2nn(CC(=S)Nc3cccc(F)c3)cc2-c2ccc3nccnc3c2)n1` [Compound 18c, 2-(3-(6-(Dimethylamino)pyridin-2-yl)-4-(quinoxalin-6-yl)-1H-pyrazol-1-yl)-N-(3-fluorophenyl)ethanethioamide], the melting point fell in the range of 68.5 to 70.2 °C. Besides, on ALK5, 5 µM corresponded to half-maximal inhibition (IC50), the “Selectivity Index” value is on record as >2 and the remaining activity at 10 µM amounted to 29%. For the same compound, on p38α MAP kinase, the IC50 is > 10 µM and the remaining activity at 10 µM is 165%.

As to `Cc1csc(-c2nn(CC(=O)Nc3cccc(F)c3)cc2-c2ccc3nccnc3c2)n1` [Compound 16c, N-(3-Fluorophenyl)-2-(3-(4-methylthiazol-2-yl)-4-(quinoxalin-6-yl)-1H-pyrazol-1-yl)acetamide], the melting point is 212.1 to 213.5 °C. Also, at ALK5, the remaining activity at 10 µM is 3%. At p38α MAP kinase, the remaining activity at 10 µM is 101%.

`CN(C)c1cccc(-c2nn(CC(=S)Nc3ccccc3F)cc2-c2ccc3nccnc3c2)n1` [Compound 18b, 2-(3-(6-(Dimethylamino)pyridin-2-yl)-4-(quinoxalin-6-yl)-1H-pyrazol-1-yl)-N-(2-fluorophenyl)ethanethioamide] displayed a melting point of 88.3 to 91.2 °C. At ALK5, the IC50 is > 10 µM and the remaining activity at 10 µM was determined as 70%. For the same compound, on p38α MAP kinase, the IC50 was > 10 µM and the remaining activity at 10 µM amounted to 125%.

The compound `O=C(Cn1cc(-c2ccc3nccnc3c2)c(-c2ccncn2)n1)Nc1ccccc1` [Compound 25a, N-Phenyl-2-(3-(pyrimidin-4-yl)-4-(quinoxalin-6-yl)-1H-pyrazol-1-yl)acetamide] showed a melting point of 170.3 to 172.5 °C. For the same compound, at ALK5, the midpoint of inhibition, the IC50, lay at 5.03 µM; the “Selectivity Index” value was >2; the “ALK5 inhibitory activity in words” value is “no significant ALK5 inhibition activity”. Moreover, on p38α MAP kinase, the IC50 was > 10 µM.

`CN(C)c1cccc(-c2c(-c3ccc4nccnc4c3)cnn2CC(=O)Nc2ccccc2)n1` [Compound 15a, 2-(5-(6-(Dimethylamino)pyridin-2-yl)-4-(quinoxalin-6-yl)-1H-pyrazol-1-yl)-N-phenylacetamide]: the remaining activity at 10 µM is 95% at ALK5 and 118% at p38α MAP kinase.

Compound `CN(C)c1cccc(-c2nn(CC(=O)Nc3cccc(F)c3)cc2-c2ccc3nccnc3c2)n1` [Compound 14c, 2-(3-(6-(Dimethylamino)pyridin-2-yl)-4-(quinoxalin-6-yl)-1H-pyrazol-1-yl)-N-(3-fluorophenyl)acetamide] yielded a melting point of 176.5 to 178.5 °C. In addition, on ALK5, the remaining activity at 10 µM turned out to be 37%. Moreover, the remaining activity at 10 µM on p38α MAP kinase turned out to be 121%.

For `Cc1csc(-c2c(-c3ccc4nccnc4c3)cnn2CC(=O)Nc2cccc(C#N)c2)n1` [Compound 17d, N-(3-Cyanophenyl)-2-(5-(4-methylthiazol-2-yl)-4-(quinoxalin-6-yl)-1H-pyrazol-1-yl)acetamide], the remaining activity at 10 µM at ALK5 was 58%; at p38α MAP kinase it was 97%.

For the compound `Cc1cccc(-c2nn3c(c2-c2ccnc4ccc(C(N)=O)cc24)CCC3)n1` [Compound 3, LY-2157299, reference compound], the remaining activity at 10 µM at ALK5 worked out at 1%. For the same compound, on p38α MAP kinase, the half-inhibitory concentration (IC50) amounted to 0.49 µM and the remaining activity at 10 µM was 4%.

Consider `Cc1csc(-c2nn(CC(=S)Nc3cccc(C#N)c3)cc2-c2ccc3nccnc3c2)n1` [Compound 19d, N-(3-Cyanophenyl)-2-(3-(4-methylthiazol-2-yl)-4-(quinoxalin-6-yl)-1H-pyrazol-1-yl)ethanethioamide], for which, on ALK5, 0.37 µM corresponded to half-maximal inhibition (IC50), the “Selectivity Index” value is >27 and the remaining activity at 10 µM is 13%. Besides, at p38α MAP kinase, the IC50 is > 10 µM and the remaining activity at 10 µM stood at 105%.

Regarding `Cc1csc(-c2nn(CC(=S)Nc3ccccc3F)cc2-c2ccc3nccnc3c2)n1` [Compound 19b, N-(2-Fluorophenyl)-2-(3-(4-methylthiazol-2-yl)-4-(quinoxalin-6-yl)-1H-pyrazol-1-yl)ethanethioamide], at ALK5, half-maximal inhibition (IC50) was put at 0.28 µM, the “fold more selective than compound 3 (LY-2157299) against p38α MAP kinase” value was 9.0 fold, the “Selectivity Index” value was >35 and the remaining activity at 10 µM was found to be 2%. In addition, the inhibition (commonly the percentage by which the read-out fell short of the control) at 10 µM at ALK5 (at 10 µM) came out at 98%. Besides, at p38α MAP kinase, the IC50 was > 10 µM and the remaining activity at 10 µM was 92%.

With `Cc1csc(-c2c(-c3ccc4nccnc4c3)cnn2CC(=O)Nc2ccccc2)n1` [Compound 17a, 2-(5-(4-Methylthiazol-2-yl)-4-(quinoxalin-6-yl)-1H-pyrazol-1-yl)-N-phenylacetamide], the remaining activity at 10 µM at ALK5 is 46%; at p38α MAP kinase, 68%.

Turning to `Cc1csc(-c2c(-c3ccc4nccnc4c3)cnn2CC(=O)Nc2ccccc2F)n1` [Compound 17b, N-(2-Fluorophenyl)-2-(5-(4-methylthiazol-2-yl)-4-(quinoxalin-6-yl)-1H-pyrazol-1-yl)acetamide], the results for the remaining activity at 10 µM on ALK5 and on p38α MAP kinase were 73% and 54%, respectively.

As to `Fc1ccccc1NC(=S)Cn1cc(-c2ccc3nccnc3c2)c(-c2ccncn2)n1` [Compound 27b, N-(2-Fluorophenyl)-2-(3-(pyrimidin-4-yl)-4-(quinoxalin-6-yl)-1H-pyrazol-1-yl)ethanethioamide], on ALK5, the half-maximal inhibitory concentration (IC50) was > 10 µM and the “ALK5 inhibitory activity in words” value is on record as “no significant ALK5 inhibition activity”. Also, on p38α MAP kinase, the IC50 is > 10 µM.

For `Cc1csc(-c2nn(CC(=S)Nc3ccccc3)cc2-c2ccc3nccnc3c2)n1` [Compound 19a, 2-(3-(4-Methylthiazol-2-yl)-4-(quinoxalin-6-yl)-1H-pyrazol-1-yl)-N-phenylethanethioamide], on ALK5, it took 0.57 µM to reach half-maximal inhibition (IC50), the “Selectivity Index” value is >17 and the remaining activity at 10 µM worked out at 5%. Further, on p38α MAP kinase, the IC50 is > 10 µM and the remaining activity at 10 µM stood at 102%.
